What was measured:
Format in all cases: in vivo
[1] = test system: adult brown dog ticks (Rhipicephalus sanguineus); assay: Rhipicephalus sanguineus in-vitro contact test, adult brown dog ticks; settings: Rhipicephalus sanguineus; 1 μg/cm^2 (=100 g/ha), after 48 hours; read-out: efficacy (ticks dead or moribund)
Experimental: Rhipicephalus sanguineus—In-Vitro Contact Tests with Adult Brown Dog Ticks
(§1) 9 mg compound is solved in 1 mL acetone and diluted with acetone to the desired concentration. 250 μL of the test solution is filled in 25 mL glass test tubes and homogeneously distributed on the inner walls by rotation and tilting on a shaking device (2 h at 30 rpm). With a compound concentration of 900 ppm, an inner surface of 44.7 cm^2 and a homogeneous distribution, a dose of 5 μg/cm^2 is achieved.
(§2) After the solvent has evaporated, each test tube is filled with 5-10 adult brown dog ticks (Rhipicephalus sanguineus), closed with a perforated lid and incubated in a lying position at room temperature and relative humidity. After 48 hours efficacy is determined. The ticks are patted on the ground of the tubes and are incubated on a heating plate at 45-50° C. for at most 5 minutes. Immotile or uncoordinated moving ticks, which are not able to escape the heat by climbing upwards, are marked as dead or moribund.
An efficacy of 100% means all ticks are dead or moribund; 0% means no ticks are dead or moribund.

[2] = test system: larvae of the southern green stink bug (Nezara viridula); assay: Nezara viridula spray test; settings: Nezara viridula, in Hordeum vulgare, 96 h
Experimental: Nezara viridula—Spray Test
(§3) Solvent: 78.0 parts by weight of acetone • • 1.5 parts by weight of dimethylformamide
(§4) Emulsifier: alkylarylpolyglycol ether
(§5) To produce a suitable preparation of active compound, 1 part by weight of active compound is mixed with the stated amount of solvent, and the concentrate is diluted with water, containing an emulsifier concentration of 1000 ppm, to the desired concentration. Further test concentrations are prepared by dilution with emulsifier containing water.
Barley plants (Hordeum vulgare) are sprayed with a test solution containing the desired concentration of the active ingredient and are infested with larvae of the southern green stink bug (Nezara viridula).
After 4 days mortality in % is determined. 100% means all the stink bugs have been killed; 0% means none of the stink bugs have been killed.

[3] = test system: Rhipicephalus (Boophilus) microplus larvae (strain Parkhurst, resistant against synthetic pyrethroids); assay: Rhipicephalus (Boophilus) microplus in-vitro contact test, larval cattle tick; settings: Rhipicephalus microplus; 1 μg/cm^2 (=100 g/ha), after 48 hours; read-out: efficacy (larvae dead or moribund)
Experimental: Rhipicephalus (Boophilus) Microplus—In-Vitro Contact Tests Larval Cattle Tick (Strain Parkhurst, Resistant Against Synthetic Pyrethroids
as §1
After the solvent has evaporated, each test tube is filled with 20-50 cattle tick larvae (Rhipicephalus microplus), closed with a perforated lid and incubated in a horizontal position at 85% relative humidity and 27° C. in an incubator. After 48 hours efficacy is determined. The larvae are patted on the ground of the tubes and negative geotactic behavior is recorded.

[4] = test system: adult cat fleas (Ctenocephalides felis); assay: Ctenocephalides felis in-vitro contact test, adult cat flea; settings: Ctenocephalides felis; 1 μg/cm^2 (=100 g/ha), after 48 hours; read-out: efficacy (fleas dead or moribund)
Experimental: Ctenocephalides Felis—In-Vitro Contact Tests Adult Cat Flea
as §1
as §2, with “cat fleas (Ctenocephalides felis),” for “brown dog ticks (Rhipicephalus sanguineus),”, “fleas” for “ticks”, “fleas,” for “ticks,”
An efficacy of 100% means all fleas are dead or moribund; 0% means no fleas are dead or moribund.

[5] = test system: green peach aphid (Myzus persicae); assay: Myzus persicae spray test (MYZUPE); settings: in Brassica rapa, foliar, 120 h
Experimental: Myzus persicae—Spray Test
(§6) Solvent: 78.0 parts by weight acetone • 1.5 parts by weight dimethylformamide
as §4
as §5, with “solvents” for “solvent,”, “and” for “and the concentrate”
Chinese cabbage (Brassica pekinensis) leaf disks infected with all instars of the green peach aphid (Myzus persicae), are sprayed with a preparation of the active ingredient of the desired concentration.
After 5 days mortality in % is determined. 100% means all aphids have been killed and 0% means none of the aphids have been killed.
Myzus persicae—Spray Test (MYZUPE
After the specified period of time, mortality in % is determined. 100% means all aphids have been killed and 0% means none of the aphids have been killed.

[6] = test system: brown planthopper (Nilaparvata lugens); assay: Nilaparvata lugens spray test; settings: Nilaparvata lugens, in Oryza sativa, 96 h
Experimental: Nilaparvata lugens—Spray Test
as §3, §4
as §5, with “solvents” for “solvent,”, “and” for “and the concentrate”
Rice plants (Oryza sativa) are sprayed with a preparation of the active ingredient of the desired concentration and the plants are infested with the brown planthopper (Nilaparvata lugens).
After 4 days mortality in % is determined. 100% means all planthoppers have been killed and 0% means none of the planthoppers have been killed.

[7] = test system: larvae of the banded cucumber beetle (Diabrotica balteata); assay: Diabrotica balteata spray test; settings: Diabrotica balteata, 168 h; 100 g/ha (=32 μg/well), wheat seeds, after 7 days; read-out: efficacy (seedlings grown)
Experimental: Diabrotica balteata—Spray Test
as §3, §4, §5
Soaked wheat seeds (Triticum aestivum) are placed in a multiple well plate filled with agar and some water and are incubated for 1 day to germinate (5 seeds per well). The germinated wheat seeds are sprayed with a test solution containing the desired concentration of the active ingredient. Afterwards each unit is infected with 10-20 larvae of the banded cucumber beetle (Diabrotica balteata).
After 7 days efficacy in % is determined. 100% means all the seedlings have grown up like in the untreated, uninfected control; 0% means none of the seedlings have grown.

[8] = test system: fall armyworm larvae (Spodoptera frugiperda); assay: Spodoptera frugiperda spray test (SPODFR); settings: in Zea mays, 168 h
Experimental: Spodoptera frugiperda—Spray Test
as §6, §4
as §5, with “solvents” for “solvent,”, “and” for “and the concentrate”
Maize (Zea mays) leaf sections are sprayed with a preparation of the active ingredient of the desired concentration. Once dry, the leaf sections are infested with fall armyworm larvae (Spodoptera frugiperda).
After 7 days mortality in % is determined. 100% means all caterpillars have been killed and 0% means none of the caterpillars have been killed.
Spodoptera frugiperda—Spray Test (SPODFR
After the specified period of time, mortality in % is determined. 100% means all caterpillars have been killed and 0% means none of the caterpillars have been killed.

[9] = test system: adult unfed cat fleas (Ctenocephalides felis); assay: Ctenocephalides felis oral test; settings: 48 h, 100 ppm in citrated cattle blood, after 2 days
Experimental: Ctenocephalides felis—Oral Test
(§7) Solvent: Dimethyl Sulfoxide
To produce a suitable preparation of active compound, 10 mg of active compound are dissolved in 0.5 mL solvent, and the concentrate is diluted with citrated cattle blood to the desired concentration.
Approximately 20 adult unfed cat fleas (Ctenocephalides felis) are placed in a flea chamber whose top and bottom is covered with gauze. A chamber whose bottom is sealed with parafilm, is filled with the blood-compound solution and placed on top of the flea chamber, so that the fleas can suck the blood. The blood chamber is heated to 37° C. whereas the flea chamber is kept at room temperature.
After 2 days mortality in % is determined. 100% means all the fleas have been killed; 0% means none of the fleas have been killed.

[10] = test system: adult engorged female ticks (Rhipicephalus microplus); assay: Rhipicephalus (Boophilus) microplus injection test; settings: 4 μg/tick, after 7 days
Experimental: Rhipicephalus (Boophilus) Microplus—Injection Test
as §7
To produce a suitable preparation of active compound, 10 mg of active compound are dissolved in 0.5 mL solvent, and the concentrate is diluted with solvent to the desired concentration.
Five adult engorged female ticks (Rhipicephalus microplus) are injected with 1 μL compound solution into the abdomen. The ticks are transferred into replica plates and incubated in a climate chamber.
After 7 days egg deposition of fertile eggs is monitored. Eggs where fertility is not visible are stored in a climate chamber till hatching after about 42 days. An efficacy of 100% means all eggs are infertile; 0% means all eggs are fertile.

Structure (SMILES)	pest or weed control at 1 µg/cm2, 100 g/ha [1] [%]	mortality at 500 g/ha [2] [%]	pest or weed control at 1 µg/cm2 [3] [%]	pest or weed control at 1 µg/cm2 [4] [%]	mortality at 100 g/ha [5] [%]	mortality at 500 g/ha [6] [%]	pest or weed control at 32 µg/disc, 100 g/ha [7] [%]	mortality at 100 g/ha [8] [%]	mortality at 100 ppm [9] [%]	efficacy (infertile eggs) [10] [%]
Cc1nc([C@H](C)NC(=O)c2cc(OC(F)(F)F)cc(C3CC3)c2)n(-c2cnc(C(=O)N(C)C)cn2)n1 [Example I-047, 5-(5-{(1S)-1-[3-Cyclopropyl-5-(trifluoromethoxy)benzamido]ethyl}-3-methyl-1H-1,2,4-triazol-1-yl)-N,N-dimethylpyrazine-2-carboxamide]	100	100	100	100	90	100	80	100		
C[C@H](NC(=O)c1cc(C(F)(F)F)cc(C(F)(F)F)c1)c1ncnn1-c1cnc(C(=O)N(C)C)cn1 [Example I-005]	100		100	100	100	100		100	100	100
C[C@H](NC(=O)c1cc(OC(F)(F)F)cc(C2CC2)c1)c1ncnn1-c1cnc(C(=O)N(C)C2CC2)cn1 [Example I-003]	80		100	100	90		100	100	100	100
Cc1nc([C@H](C)NC(=O)c2cc(C(F)(F)F)cc(C(F)(F)F)c2)n(-c2cnc(C(=O)N(C)C3CC3)cn2)n1 [Example I-001]	100	100	100	100	90	100		100	100	100
C[C@H](NC(=O)c1cc(C(F)(F)F)cc(C(F)(F)F)c1)c1ncnn1-c1cnc(C(N)=O)cn1 [Example I-010]	100	100	100	100	90	100		100	100	100
CCN(C)C(=O)c1cnc(-n2nc(C)nc2[C@H](C)NC(=O)c2cc(C(F)(F)F)cc(C(F)(F)F)c2)cn1 [Example I-016]	100	100	100	100	100	100		100		
CCN(C)C(=O)c1cnc(-n2ncnc2[C@H](C)NC(=O)c2cc(C(F)(F)F)cc(C(F)(F)F)c2)cn1 [Example I-006]	100		100	100	100	100		100	100	100
Cc1nc([C@H](C)NC(=O)c2cc(C(F)(F)F)cc(C(F)(F)F)c2)n(-c2cnc(C(=O)N(C)C)cn2)n1 [Example I-015]	100	100	100	100	90	100		100		

— patent US20240368125A1, “NOVEL PYRAZINYL-TRIAZOLE COMPOUNDS AS PESTICIDES” (Bayer Aktiengesellschaft, priority 2021, published 2024)
